Measurements taken from PubChem BioAssay AID328 (DTP/NCI, 2004).
Values joined by “and” are separate entries in the source; they are usually repeats but may differ in a detail not shown here. Equal values may be shown once. Toxic doses and inconclusive results are not listed.

Test system: BDF1 mice, P388 leukemia ip, median survival T/C
Assay: NCI In Vivo Anticancer Drug Screen. Data for tumor model P388 Leukemia (intraperitoneal) in B6D2F1 (BDF1) mice
Conditions: endpoint: median survival time, higher = longer survival
Method in brief: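 In tumour-bearing mice, survival after compound treatment is set against the vehicle group and given as a quotient.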

[1] = dose: 12.5 mg/kg/injection, schedule: Q01DX009 (ip), vehicle: saline with Tween-80
[2] = dose: 25.0 mg/kg/injection, schedule: Q01DX009 (ip), vehicle: saline with Tween-80
[3] = dose: 50.0 mg/kg/injection, schedule: Q01DX009 (ip), vehicle: saline with Tween-80
[4] = dose: 100.0 mg/kg/injection, schedule: Q04DX003 (ip), vehicle: saline with Tween-80
[5] = dose: 200.0 mg/kg/injection, schedule: Q04DX003 (ip), vehicle: saline with Tween-80
[6] = dose: 400.0 mg/kg/injection, schedule: Q04DX003 (ip), vehicle: saline with Tween-80
[7] = dose: 100.0 mg/kg/injection, schedule: Q04DX003 (ip), vehicle: Klucel (hydroxypropylcellulose) (HPC)
[8] = dose: 200.0 mg/kg/injection, schedule: Q04DX003 (ip), vehicle: Klucel (hydroxypropylcellulose) (HPC)
[9] = dose: 400.0 mg/kg/injection, schedule: Q04DX003 (ip), vehicle: Klucel (hydroxypropylcellulose) (HPC)
[10] = dose: 200.0 mg/kg/injection, schedule: Q04DX003 (ip), vehicle: saline
[11] = dose: 400.0 mg/kg/injection, schedule: Q04DX003 (ip), vehicle: saline
[12] = dose: 25.0 mg/kg/injection, schedule: Q01DX009 (ip), vehicle: other
[13] = dose: 100.0 mg/kg/injection, schedule: Q01DX009 (ip), vehicle: other
[14] = dose: 25.0 mg/kg/injection, schedule: Q01DX009 (ip), vehicle: saline
[15] = dose: 50.0 mg/kg/injection, schedule: Q01DX009 (ip), vehicle: saline
[16] = dose: 100.0 mg/kg/injection, schedule: Q01DX009 (ip), vehicle: saline
[17] = dose: 6.25 mg/kg/injection, schedule: Q01DX009 (ip), vehicle: saline
[18] = dose: 12.5 mg/kg/injection, schedule: Q01DX009 (ip), vehicle: saline
[19] = dose: 100.0 mg/kg/injection, schedule: Q01DX009 (ip), vehicle: saline with Tween-80
[20] = dose: 200.0 mg/kg/injection, schedule: Q01DX009 (ip), vehicle: saline with Tween-80
[21] = dose: 50.0 mg/kg/injection, schedule: Q04DX003 (ip), vehicle: saline sonified

In the case of `CCNc1cc(Cl)nc(N)n1`, the T/C [1] is reported as 95 % of control, the T/C [2] is reported as 104 % of control and the T/C [3] is reported as 104 % of control. The T/C [4] was 108 % of control, the T/C [5] was 95 % of control and the T/C [6] was 112 % of control.
`NS(=O)(=O)CS(=O)(=O)Oc1ccccc1` was tested, and the T/C (dose: 100.0 mg/kg/injection, schedule: Q01DX001 (ip), vehicle: saline with Tween-80) was 100 % of control and the T/C (dose: 200.0 mg/kg/injection, schedule: Q01DX001 (ip), vehicle: saline with Tween-80) was 99 % of control.
With `N=c1ccc2nc3ccc(N)cc3sc-2c1` the T/C (dose: 25.0 mg/kg/injection, schedule: Q04DX003 (ip), vehicle: saline) was 100 % of control and the T/C (dose: 50.0 mg/kg/injection, schedule: Q04DX003 (ip), vehicle: saline) was 109 % of control.
For `CCOc1ccc(N2C(=O)CC(Sc3ccccc3N)C2=O)cc1` (stereo not given), the T/C (dose: 100.0 mg/kg/injection, schedule: Q01DX001 (ip), vehicle: Klucel (hydroxypropylcellulose) (HPC)) was 105 % of control, the T/C [7] was 100 % of control and the T/C (dose: 200.0 mg/kg/injection, schedule: Q01DX001 (ip), vehicle: Klucel (hydroxypropylcellulose) (HPC)) was 100 % of control. The T/C [8] was 90 % of control, the T/C (dose: 400.0 mg/kg/injection, schedule: Q01DX001 (ip), vehicle: Klucel (hydroxypropylcellulose) (HPC)) was 100 % of control and the T/C [9] was 100 % of control.
For `CN(C)c1nn2c(-c3ccccc3)nnc2o1`, the T/C [10] was 105 % of control and the T/C [11] was 120 % of control.
In the case of `CCOC(/C=C/c1ccccc1)OCC`, the T/C (dose: 264.0 mg/kg/injection, schedule: Q04DX003 (ip), vehicle: saline) is reported as 90 % of control, the T/C [11] is reported as 100 % of control and the T/C (dose: 600.0 mg/kg/injection, schedule: Q04DX003 (ip), vehicle: saline) is reported as 113 % of control.
In the case of `CC(CO)S(=O)(=O)C(C)(C)C` (stereo not given), the T/C (dose: 100.0 mg/kg/injection, schedule: Q04DX003 (ip), vehicle: saline) is reported as 94 % of control, the T/C [10] is reported as 95 % of control and the T/C [11] is reported as 94 % of control.
With `O=C1c2ccccc2C(=O)c2c(NCCCCCO)ccc(NCCCCCO)c21` the T/C [12] was 88 % of control and the T/C [13] was 88 % of control.
`Cc1ccc(CO)cc1C` was tested, and the T/C (dose: 50.0 mg/kg/injection, schedule: Q04DX003 (ip), vehicle: saline with Tween-80) was 100 % of control, the T/C [4] was 100 % of control and the T/C [5] was 104 % of control.
With `CCCCCCCCCCC(CCCCCCCCCC)CCCCCCCCC(CCCCCCCCCC)CCCCCCCCCC` the T/C [7] was 108 % of control, the T/C [8] was 93 % of control and the T/C [9] was 97 % of control.
For `OCc1ccn2c1C(O)CC2` (stereo not given), the T/C (dose: 12.5 mg/kg/injection, schedule: Q01DX009 (ip), vehicle: other) was 112 % of control, the T/C [12] was 102 % of control and the T/C [14] was 115 % of control. For the same compound, the T/C (dose: 50.0 mg/kg/injection, schedule: Q01DX009 (ip), vehicle: other) was 100 % of control, the T/C [15] was 165 % of control and the T/C [13] was 100 % of control. For the same compound, the T/C [16] was 240 % of control and 100 % of control.
With `CCOC(=O)/C(C#N)=C/N=c1ccccn1C` the T/C (dose: 6.25 mg/kg/injection, schedule: Q04DX002 (ip), vehicle: saline with Tween-80) was 101 % of control, the T/C (dose: 12.5 mg/kg/injection, schedule: Q04DX002 (ip), vehicle: saline with Tween-80) was 101 % of control and the T/C (dose: 25.0 mg/kg/injection, schedule: Q04DX002 (ip), vehicle: saline with Tween-80) was 101 % of control.
For `CN(C)/N=N/c1[nH]ncc1C(N)=O`, the T/C (dose: 50.0 mg/kg/injection, schedule: Q01DX009 (ip), vehicle: Klucel (hydroxypropylcellulose) (HPC)) was 95 % of control, the T/C (dose: 100.0 mg/kg/injection, schedule: Q01DX009 (ip), vehicle: Klucel (hydroxypropylcellulose) (HPC)) was 104 % of control and the T/C (dose: 100.0 mg/kg/injection, schedule: Q04DX003 (ip), vehicle: alcohol) was 118 % of control. The T/C (dose: 200.0 mg/kg/injection, schedule: Q04DX003 (ip), vehicle: alcohol) was 113 % of control.
In the case of `CNS(=O)(=O)c1ccc2c(c1)nc(SC)n2C`, the T/C [4] is reported as 100 % of control, the T/C [5] is reported as 100 % of control and the T/C [6] is reported as 104 % of control.
For `NC(=O)C1=NNc2ccccc2C(=O)N1c1ccccc1`, the T/C [4] was 108 % of control, the T/C [5] was 113 % of control and the T/C [6] was 103 % of control.
In the case of `NOCc1cc2c(cc1Cl)OCO2`, the T/C [7] is reported as 95 % of control, the T/C [8] is reported as 100 % of control and the T/C [9] is reported as 113 % of control.
For `CC[P+](CC)(CC)CCCCI`, the T/C [17] was 120 % of control, the T/C [18] was 123 % of control and the T/C [14] was 108 % of control and 120 % of control. The T/C [15] was 99 % of control.
`COc1ccc(O)c(/C=C/c2cc[n+](C)cc2)c1` was tested, and the T/C (dose: 100.0 mg/kg/injection, schedule: Q04DX002 (ip), vehicle: saline with Tween-80) was 91 % of control and the T/C (dose: 200.0 mg/kg/injection, schedule: Q04DX002 (ip), vehicle: saline with Tween-80) was 97 % of control.
In the case of `CCOC1=Cc2c(oc3c(C(C)(C)C)cc(OCC)cc23)OC(C(C)(C)C)=C1`, the T/C (dose: 3.12 mg/kg/injection, schedule: Q01DX009 (ip), vehicle: saline with Tween-80) is reported as 112 % of control, the T/C (dose: 6.25 mg/kg/injection, schedule: Q01DX009 (ip), vehicle: saline with Tween-80) is reported as 122 % of control and the T/C [1] is reported as 122 % of control. The T/C [2] was 100 % of control and 121 % of control and the T/C [3] was 101 % of control.
With `O=S1(=O)CC(Cl)C(Cl)C1` (stereo not given) the T/C (dose: 3.12 mg/kg/injection, schedule: Q01DX009 (ip), vehicle: saline) was 90 % of control and 95 % of control, the T/C (dose: 4.5 mg/kg/injection, schedule: Q04DX003 (ip), vehicle: saline) was 118 % of control and the T/C [17] was 90 % of control. The T/C (dose: 9.0 mg/kg/injection, schedule: Q04DX003 (ip), vehicle: saline) was 104 % of control, the T/C [18] was 95 % of control and the T/C (dose: 18.0 mg/kg/injection, schedule: Q04DX003 (ip), vehicle: saline) was 113 % of control. The T/C (dose: 26.0 mg/kg/injection, schedule: Q04DX003 (ip), vehicle: saline) was 91 % of control.
In the case of `CN/N=C/c1c2c(O)c3c(O)c(C)c4c(c3c1O)C(=O)C(C)(O/C=C/C(OC)C(C)C(OC(C)=O)C(C)C(O)C(C)C(O)C(C)/C=C/C=C(/C)C(=O)N2)O4` (stereo not given), the T/C [3] is reported as 90 % of control, the T/C [19] is reported as 116 % of control and the T/C [20] is reported as 117 % of control.
For `C/C(CC(C)(C)c1ccccc1)=N/NC(N)=O`, the T/C [21] was 90 % of control, the T/C (dose: 100.0 mg/kg/injection, schedule: Q04DX003 (ip), vehicle: saline sonified) was 100 % of control and the T/C (dose: 200.0 mg/kg/injection, schedule: Q04DX003 (ip), vehicle: saline sonified) was 95 % of control.
`O=C1C=C(Nc2ccccc2)CCC1` was tested, and the T/C [15] was 99 % of control, the T/C [16] was 100 % of control and the T/C (dose: 200.0 mg/kg/injection, schedule: Q01DX009 (ip), vehicle: saline) was 103 % of control.
In the case of `O=S(=O)(CI)OCCCl`, the T/C (dose: 50.0 mg/kg/injection, schedule: Q01DX005 (ip), vehicle: Klucel (hydroxypropylcellulose) (HPC)) is reported as 93 % of control and the T/C (dose: 100.0 mg/kg/injection, schedule: Q01DX005 (ip), vehicle: Klucel (hydroxypropylcellulose) (HPC)) is reported as 110 % of control.
In the case of `Cc1ccc(S(=O)(=O)OCC2C3CCCC2C3)cc1` (stereo not given), the T/C [3] is reported as 101 % of control, the T/C [19] is reported as 100 % of control and the T/C [20] is reported as 96 % of control.
For `NC(N)=Nc1nc2ccccc2s1`, the T/C (dose: 12.5 mg/kg/injection, schedule: Q04DX003 (ip), vehicle: saline sonified) was 104 % of control, the T/C (dose: 25.0 mg/kg/injection, schedule: Q04DX003 (ip), vehicle: saline sonified) was 100 % of control and the T/C [21] was 100 % of control.
For `OC1(CSc2ccccc2)C=CCCC1` (stereo not given), the T/C [2] was 97 % of control and 111 % of control, the T/C [3] was 98 % of control and 112 % of control and 113 % of control and the T/C [19] was 109 % of control and 112 % of control and 121 % of control. The T/C [20] was 111 % of control and 119 % of control and 120 % of control.
With `N#CC(C#N)=Cc1ccc2c(c1)CCC2` the T/C (dose: 5.0 mg/kg/injection, schedule: Q04DX003 (ip), vehicle: saline with Tween-80) was 104 % of control, the T/C (dose: 9.5 mg/kg/injection, schedule: Q01DX009 (ip), vehicle: saline with Tween-80) was 104 % of control and the T/C (dose: 10.0 mg/kg/injection, schedule: Q04DX003 (ip), vehicle: saline with Tween-80) was 95 % of control. The T/C (dose: 19.0 mg/kg/injection, schedule: Q01DX009 (ip), vehicle: saline with Tween-80) was 109 % of control, the T/C (dose: 20.0 mg/kg/injection, schedule: Q04DX003 (ip), vehicle: saline with Tween-80) was 95 % of control and the T/C (dose: 38.0 mg/kg/injection, schedule: Q01DX009 (ip), vehicle: saline with Tween-80) was 86 % of control and 100 % of control.
